From patent US20240382651A1, “BUPIVACAINE-COLLAGEN DRUG DELIVERY IMPLANT AND METHODS OF MAKING AND USING THEREOF” (INNOCOLL PHARMACEUTICALS LIMITED, priority 2021, published 2024)
Counter-ions that a name gives are not always drawn.

Assay: Genotoxicity studies of bupivacaine HCl (4 in vitro, 2 in vivo)
Settings: 4 in vitro studies and 2 in vivo studies
Description: The distribution, metabolism, and excretion of bupivacaine across species is characterized in the literature including data showing that, following absorption, bupivacaine is rapidly and readily distributed to tissues, with the highest concentrations in highly perfused tissues. In general, the metabolic profile of bupivacaine is similar across species although quantitatively different, with no novel metabolite identified in humans (Goehl, et al., 1973, Carson 2000). The excretion of bupivacaine in monkeys and humans is predominantly in the urine; in rats, excretion in urine and feces is generally similar; and in dogs, only small amounts of excretion of bupivacaine in the urine have been reported.

CCCCN1CCCCC1C(=O)Nc1c(C)cccc1C (stereo not shown) [bupivacaine HCl]
Genotoxicity: no safety concerns identified
